Values joined by “and” are separate entries in the source; they are usually repeats but may differ in a detail not shown here. Equal values may be shown once. Read-outs that look alike come from different tables or passages of the source. Blank lines part the entries; values can stand above or below the molecule they belong to.
How the values were obtained:
[1] = tested on: rabbit corporal smooth muscle (CSM) strip; assay: Organ bath relaxation of phenylephrine-pre-contracted rabbit corpus cavernosal strips; set-up: species or system New Zealand white rabbits; settings: for relaxation, % of the phenylephrine (PE)-induced contraction: concentration-response; for % relaxation of the phenylephrine-induced contraction: synergy experiment
Excerpt: Sexually mature male New Zealand white rabbits (3.0±0.3 kg) were killed with an air embolism in the ear vein. The entire penis was then surgically excised, and then cleaned by removing the […] and urethra. Then, the corporal tissue was carefully dissected from the surrounding tunica. Four corpus cavernosal strips with approximately equal sizes (2×2×10 mm) were obtained from each penis.
Rabbit corpus cavernosal strips were separately prepared for organ-bath studies. Each corporal strip was mounted in a 10 ml-organ chamber filled with Krebs buffer (composition in mmol/l: 118.4 NaCl, 4.7 KCl, 2.5 CaCl2, 1.2 KH2PO4, 1.2 MgSO4, 24.9 NaHCO3, and 11.1 D-glucose), with one end fixed to a tissue holder and the other secured to a force transducer. The force transducer was connected to an appropriately calibrated four-channel polygraph (Power-Lab; AD Instruments, Sydney, NSW, Australia), in which the transducer output was recorded. The corpus cavernosal strips were kept in the organ bath with Krebs solution maintained at 36.5° C. by a thermo-regulated water circuit and by continuously bubbling with a mixture of 95% O2 and 5% CO2. Each corporal strip was stretched to an optimal isometric tension of 1.0 g and was equilibrated for 60 min. During the equilibration, the tissues were washed with fresh Krebs solution every 15 min, and the tension was adjusted if necessary.
The vasodilatory effect of LDD175 was studied by cumulative addition of the sample at concentrations ranging from 10^−7 to 10^−4 M to endothelium-intact strips and endothelium-denuded strips after pre-contraction with 10^−5 M phenylephrine (PE). The endothelial lining of the corpus cavernosum was removed by rubbing the strip between the thumb and index finger for 20 seconds and soaking the same in 0.3% solution of 3[(3-cholamidopropyl)-dimethylammonio]-l-propanesulphonate (CHAPS) for 10 seconds. It was confirmed whether the endothelium was functionally completely removed for all strips by pre-contracting the strips with 10^−5 M […] PE and then adding acetylcholine (10^−6 M) thereto. […] After the addition of IbTX, LDD175 was added to strips pre-contracted with PE. The relaxation effect of the PDE5 inhibitor (udenafil, 10^−6 and 10^−5 M) was also separately measured in the same manner, and compared to that of LDD175. The synergistic relaxation effect between 10^−5 M LDD175 and 10^−6 M udenafil was also investigated.

[2] = biological target: T1, BKCa channel (Homo sapiens, UniProt Q12791); assay: Whole-cell patch-clamp recording of BKCa currents in cultured human CSM cells; type: cell-based; settings: for activation of outward rectifying K+ currents (whole-cell), increase vs. control: at +60 mV
T1 construct: Homogeneous explant cell cultures of human corporal smooth muscle (CSM) cells were prepared; endogenous in cells; host or cells: primary explant cultures of human corporal smooth muscle (CSM) cells from erectile dysfunction patients
T1 sequence (Q12791 whole entry): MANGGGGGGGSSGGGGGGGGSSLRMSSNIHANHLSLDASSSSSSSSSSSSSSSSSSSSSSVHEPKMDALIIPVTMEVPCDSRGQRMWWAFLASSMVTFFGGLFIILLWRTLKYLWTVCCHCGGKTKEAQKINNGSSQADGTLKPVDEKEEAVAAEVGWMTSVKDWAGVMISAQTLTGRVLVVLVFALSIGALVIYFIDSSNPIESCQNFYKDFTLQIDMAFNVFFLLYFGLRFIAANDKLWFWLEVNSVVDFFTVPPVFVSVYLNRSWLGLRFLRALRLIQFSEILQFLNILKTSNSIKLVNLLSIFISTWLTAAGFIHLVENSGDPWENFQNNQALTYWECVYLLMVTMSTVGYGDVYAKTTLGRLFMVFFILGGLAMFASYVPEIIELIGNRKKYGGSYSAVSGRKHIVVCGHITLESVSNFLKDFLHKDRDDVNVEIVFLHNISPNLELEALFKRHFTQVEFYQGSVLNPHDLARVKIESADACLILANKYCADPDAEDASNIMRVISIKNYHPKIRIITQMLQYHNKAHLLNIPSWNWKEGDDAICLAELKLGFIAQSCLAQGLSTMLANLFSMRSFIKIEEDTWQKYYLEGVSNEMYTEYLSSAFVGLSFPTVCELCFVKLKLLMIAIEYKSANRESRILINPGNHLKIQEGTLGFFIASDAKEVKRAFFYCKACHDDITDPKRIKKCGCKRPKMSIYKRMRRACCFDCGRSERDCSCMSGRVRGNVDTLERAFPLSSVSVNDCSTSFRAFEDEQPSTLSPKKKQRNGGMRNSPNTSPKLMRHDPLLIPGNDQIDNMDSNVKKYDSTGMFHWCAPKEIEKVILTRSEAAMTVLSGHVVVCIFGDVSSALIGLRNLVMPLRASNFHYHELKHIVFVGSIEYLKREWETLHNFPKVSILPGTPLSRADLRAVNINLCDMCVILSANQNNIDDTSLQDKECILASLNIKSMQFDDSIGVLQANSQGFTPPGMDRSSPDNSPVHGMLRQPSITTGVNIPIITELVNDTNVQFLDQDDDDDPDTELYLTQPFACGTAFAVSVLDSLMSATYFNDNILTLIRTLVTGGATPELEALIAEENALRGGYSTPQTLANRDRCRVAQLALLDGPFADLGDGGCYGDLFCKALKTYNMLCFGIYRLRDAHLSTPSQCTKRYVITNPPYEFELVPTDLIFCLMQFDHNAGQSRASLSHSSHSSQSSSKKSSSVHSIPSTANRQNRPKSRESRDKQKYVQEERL
Procedure: Human corporal tissues were obtained from the corpus cavernosa of patients with organic erectile dysfunction undergoing implantation of penile prostheses. Homogeneous explant cell cultures of human corporal smooth muscle (CSM) cells were prepared as follows (Palmer et al., 1994; Sung et al., 2011). Radial sections of approximately 3×3×10 mm were excised from the mid-penile shafts of the respective resected sample. These samples were tissues including smooth muscles, endothelium, and connective tissues, with occasional nerve fibers. The tissues were washed, cut into 1-2 mm pieces, and placed in tissue culture dishes filled with Dulbecco's modified Eagle's medium (DMEM, Gibco, Carlsbad, Calif., USA) supplemented with 10% fetal bovine serum and antibiotics (100 units/mL penicillin, streptomycin; Gibco), under 5% O2 and 5% CO2. After the explants were attached to the substrate (usually 1-2 days), additional medium was added. The smooth muscle cells were observed migrating from the explants, and underwent division. The cells were subsequently detached via a trypsin/EDTA protocol to establish secondary cultures from the explants. These cultures were morphologically homogeneous. The cobblestone morphology, which is the characteristic of endothelial cells, and the flattened and spread-out shape, which is the characteristic of fibroblasts, were not observed. Cellular homogeneity was further verified by observing smooth muscle-specific α-actin and myosin immuno-responsiveness. While the cultures were maintained for four or more passages, all measured pharmacological and molecular properties were evaluated in the intact tissues that were maintained in the cultures, for example, cyclic adenosine monophosphate formation (Palmer et al., 1994), calcium mobilization (Zhao and Christ, 1995), expression or function of the gap junction protein, connexin (Brink et al., 1996), and K+ channel activity (Lee et al., 1999).
The Ca^2+-activated potassium channel (BKCa) was measured by using the conventional whole-cell patch-clamp technique (Sung et al., 2011). Patch electrodes were made from borosilicate glass capillary tubing (World Precision Instruments, Sarasota, Fla., USA), and had 2.5-5 MO resistance. The cell suspension was placed into a small chamber (0.6 ml) on the stage of an inverted microscope (TMD Diaphot, Nikon, Tokyo, Japan). The membrane currents in smooth muscle cells were recorded using a patch clamp amplifier (Axopatch-1 D, Axon Instruments, Foster City, Calif., USA). The liquid junction potential between the pipette solution and the bath solution was only about 3 mV, and thus uncorrected. In each experiment, whole-cell configuration was not achieved until the seal resistance became larger than 5 GO. The pCLAMP software (Axon Instruments) and Digidata-1322A (Axon Instruments) were used for data acquisition and application of command pulses. Membrane currents were measured during ramping, and filtered at 5 kHz (−3 dB frequency). The current signals were filtered at 5 kHz, digitized, and analyzed on a personal computer using pCLAMP and Origin software (Microcal Software, Northampton, Mass., USA). The standard bath solution was prepared to contain 135 mmol NaCl, 5 mmol KCl, 10 mmol HEPES, 1.8 mmol CaCl2, 1 mmol MgCl2, and 5 mmol glucose, per liter, at pH 7.4 adjusted with NaOH. The pipette (internal) solution was prepared to contain, per liter, 140 mmol KCl, 10 mmol HEPES, 5 mmol K2ATP, 2 mmol MgCl2, 5 mmol ethyleneglycol-bis-[2-aminoethyl ether]-N,N′-tetraacetic acid (EGTA), and 0.5 mmol GTP, at pH 7.2 adjusted with KOH. The Ca^2+-free concentration in the pipette solution was adjusted to 3.15 nM by adding an appropriate amount of CaCl2, determined using the Max Chelator Sliders software (C. Patton, Stanford University).

[3] = tested on: erectile function of rats; assay: In vivo cavernous nerve stimulation model, erectile response; set-up: species or system Sprague-Dawley rats
Procedure: (§1) The erectile response was measured using Sprague-Dawley rats. The detailed methodology of measuring the erectile response has been described previously (Rehman et al., 1997). The 8-10 wk aged rats were anesthetized with intramuscular injection of Zoletil 100 mg/kg (Virbac, Carros, France), and placed on a thermally regulated surgical table. Systemic arterial blood pressure (ABP) was monitored via carotid artery cannulation (polyethylene-50 tubing). The prostate and bladder were exposed through a midline abdominal incision. The major pelvic ganglion, pelvic nerves, and cavernous nerve were identified as posterolateral to the prostate on each side. An electric stimulator with stainless steel bipolar hook electrodes was placed around the cavernous nerve for electrical stimulation. To monitor intracavernosal pressure (ICP), a 25-gauge cannula was filled with […], connected to polyethylene-50 tubing, and inserted into one side of the crura. Systemic arterial blood pressure (ABP) and intracavernosal pressure (ICP) were measured with a transducer connected to a PowerLab® (AD Instruments, Colorado Spring, Colo., USA), which is a computerized system for data acquisition. Real-time display and documentation of pressure were conducted with Chart™ 6 software. Sub-maximal electrical field stimulation (EFS) was used with 1 V, 2 Hz, 5 ms pulse width, and duration of 60 seconds. Sub-maximal electrical field stimulation was applied 10 min after a series of control (buffer solution alone), LDD175 (10 mg/kg), and udenafil (1 mg/kg) injections. At the end of sub-maximal stimulation, the full response was measured using the EFS of 6 V, 10 Hz, 5 ms pulse width, with duration of 60 seconds. Buffer solution, LDD175, and udenafil were administered at intervals of 30 min. The ratio of maximal ICP to mean arterial BP at the peak of the erectile response was calculated in order to control for variations in ABP.

[4] = tested on: rat model with diabetic erectile dysfunction; assay: Diabetic erectile dysfunction rat model (streptozotocin), intracavernosal pressure; type: in vivo, Sprague-Dawley rats; settings: for maximal ICP/ABP ratio: 5 V
Procedure: as §1
The 8-wk aged male Sprague-Dawley rats were administered with an intraperitoneal injection of streptozotocin (65 mg/kg body weight) dissolved in 5 mM citric acid buffer (pH 4.5), thereby inducing insulin dependent diabetes mellitus (IDDM). Rats of the normal control were injected with only 5 mM citric acid buffer (pH 4.5) by the same method. On day 2 of breeding, the rats were fasted for 16 hours, and the blood was collected from the tail vein to conduct the blood glucose test. Only rats with a blood glucose level of 250 mg/de or higher were selected for a diabetes induced group.

[5] = tested on: BP and heart rate; settings: cited from earlier work
[6] = tested on: aortic rings of rats; settings: cited from earlier work
[7] = sub-maximal EFS, intravenous LDD175 10 mg/kg, n=8

Molecule: O=C(O)c1ccc(Cl)c2c1[nH]c1c3ccc(C(F)(F)F)cc3oc12 [LDD175, 4-chloro-7-trifluoromethyl-10H-benzo[4,5]furo[3,2-b]indole-1-carboxylic acid]
relaxation response ([1]; 10^−4 M LDD175, denuded endothelium, n=10): 41.0±4.9% | relaxation response ([1]; 10^−4 M LDD175, intact endothelium, n=7): 45.9±6.2% | relaxation response after IbTX pretreatment ([1]; 10^−4 M LDD175, strips pre-treated with 100 nM IbTX for 30 minutes, n=7): 23.6±3.3% | relaxation, % of the phenylephrine (PE)-induced contraction ([1]; 10^−4 M): 54.0±3.0% and 54.0±3.1% | % relaxation of the phenylephrine-induced contraction ([1]; 10^−5 M alone, n=7): 32.7±3.8% | relaxation, % of the phenylephrine (PE)-induced contraction ([1]; 10^−5 M): 26.3±2.0% | relaxation, % of the phenylephrine (PE)-induced contraction ([1]; 10^−6 M): 14.5±2.6% | relaxation, % of the phenylephrine (PE)-induced contraction ([1]; 10^−7 M): 3.7±1.4% | peak current density ([2]; 0.1 μM, +60 mV, n=10): 30.9±6.5 pA/pF | peak current density ([2]; 1 μM, +60 mV, n=10): 45.1±8.2 pA/pF | peak current density ([2]; 10 μM, +60 mV, n=10): 178.5±30.0 pA/pF | peak current density ([2]; 30 μM, +60 mV, n=10): 257.3±48.3 pA/pF | activation of outward rectifying K+ currents (whole-cell), increase vs. control ([2]; 30 μM): 952.1% | peak current density ([2]; 30 μM, −40 mV): 23.9±5.8 pA/pF | peak current density, fold vs. control ([2]; 30 μM, −40 mV): 42.8 fold | peak current density ([2]; 100 μM, +60 mV, n=10): 265.5±53.4 pA/pF | BP fluctuation and hemodynamical instability ([3]; during in vivo cavernous nerve stimulation): not observed | area under curve (AUC) of ICP/ABP ratio [3, 7]: 1444.4±133.3 | maximal ICP [3, 7]: 57.8±6.6 mmHg | maximal ICP/ABP ratio [3, 7]: 45.3±5.8% | intracavernosal pressure ([4]; LDD175 5 mg/kg and 10 mg/kg injection groups, 10 mg/kg more effective than 5 mg/kg): significantly increased | effect of LDD175 on intracavernosal pressure after BKCa channel inhibitor ([4]; TEA 30 mg/kg injected, after 10 minutes LDD175 10 mg/kg): completely inhibited | BP and heart rate changes following intravenous administration ([5]; 10 mg/kg LDD175, intravenous): did not cause significant changes | adverse cardiovascular effects in in vivo animal experiments ([5]; rat, in vivo): no significant adverse cardiovascular effects | relaxation of aortic rings [6]: not relaxed

activation of outward rectifying K+ currents (whole-cell), increase vs. control ([2]; 30 μM): 880.0% | peak current density ([2]; 30 μM, −40 mV): 1.5±0.6 pA/pF | peak current density, fold vs. control ([2]; 30 μM, −40 mV): 1.3 fold
Molecule: O=c1[nH]c2cc(C(F)(F)F)ccc2n1-c1cc(C(F)(F)F)ccc1O [NS1619, reference compound]

Molecule: CC[N+](CC)(CC)CC [TEA, tetraethylammonium, reference compound]
suppression of LDD175-activated K+ currents [2]: 78.2%

Molecule: CCCc1nn(C)c2c(=O)[nH]c(-c3cc(S(=O)(=O)N4CCN(C)CC4)ccc3OCC)nc12 [sildenafil]
maximal ICP/ABP ratio ([4]; 1 mg/kg, n=6): 55.4±5.2 | maximal ICP/ABP ratio ([4]; 5 mg/kg, n=7): 69.9±5.4

Molecule: CCCOc1ccc(S(=O)(=O)NCCC2CCCN2C)cc1-c1nc2c(CCC)nn(C)c2c(=O)[nH]1 (stereo not drawn) [udenafil, reference compound]
relaxation, % of the phenylephrine (PE)-induced contraction ([1]; 10^−5 M): 67.1±1.7% | % relaxation of the phenylephrine-induced contraction ([1]; 10^−6 M alone, n=7): 21.6±2.7% | relaxation, % of the phenylephrine (PE)-induced contraction ([1]; 10^−6 M): 34.5±3.9% | effect on maximal ICP, maximal ICP/ABP ratio and AUC of ICP/ABP ratio compared with 10 mg/kg LDD175 ([3]; 1 mg/kg udenafil, sub-maximal EFS): no difference

Molecule: iberiotoxin (QFTDVDCSVSKECWSVCKDLFGVDRGKCMGKKCRCYQ; UniProt P24663 1-37, looked up) [IbTX, reference compound]
suppression of LDD175-activated K+ currents ([2]; 100 nM IbTX, n=4): 78.1%

Reference: US20160235710A1, “COMPOSITION FOR TREATING OR PREVENTING ERECTILE DYSFUNCTION COMPRISING LDD175 AS ACTIVE INGREDIENT” (ANYGEN, INC., priority 2015, published 2016)
